Data published in patent publication EP2818471A1, “Nitrogen bicyclic compounds as inhibitors for Scyl1 and Grk5” (Max-Planck-Gesellschaft zur Förderung der Wissenschaften …, priority 2013, dated 2014).

These compounds were tested on beta-TC6 cells (assay: Insulin HTRF assay, relative activity Ar normalized to sunitinib). Conditions: Mus musculus, normalized to positive control sunitinib (5 µM = 100%), Table 10.
Type: cell-based
Procedure, shortened: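 Relative activity Ar was scaled between 0% and 100% controls, with sunitinib at 5 µM f.c. as reference. Insulin released by beta-TC6 cells was quantified by sandwich HTRF (Eu-cryptate/XL665 antibodies, 120 min RT). Cells had been seeded 24 or 48 h, then treated 2–4 h at 37°C in induction buffer, 0.5% DMSO.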
In the case of `COc1cc(-c2cnc3cnc(-c4ccc(NCCN5CCOCC5)nc4)cn23)ccc1O` [compound 392, 2-methoxy-4-[6-[6-(2-morpholinoethylamino)-3-pyridyl]imidazo[1,2-a]pyrazin-3-yl]phenol], the Emax is reported as 20 to 50%. With `COc1cc(-c2cnc3cnc(-c4ccc(N5CCN(C)CC5)nc4)cn23)ccc1O` [compound 393, 2-methoxy-4-[6-[6-(4-methylpiperazin-1-yl)-3-pyridyl]imidazo[1,2-a]pyrazin-3-yl]phenol] the Emax was 20 to 50%. `COc1cc(-c2cnc3cnc(-c4ccc5c(c4)OCO5)cn23)ccc1O` [compound 394, 4-[6-(1,3-benzodioxol-5-yl)imidazo[1,2-a]pyrazin-3-yl]-2-methoxy-phenol] gave an Emax of 20 to 50%. Work on `CCOc1cccc(-c2cn3c(-c4ccc(O)c(OC)c4)cnc3cn2)c1` [compound 395, 4-[6-(3-ethoxyphenyl)imidazo[1,2-a]pyrazin-3-yl]-2-methoxy-phenol] yielded an Emax of 50 to 100%. Work on `COc1cc(-c2cnc3cnc(-c4ccc(N)nc4)cn23)ccc1O` [compound 396, 4-[6-(6-amino-3-pyridyl)imidazo[1,2-a]pyrazin-3-yl]-2-methoxy-phenol] yielded an Emax of 20 to 50%. `COc1cc(-c2cnc3cnc(-c4cnn(C)c4)cn23)ccc1O` [compound 397, 2-methoxy-4-[6-(1-methylpyrazol-4-yl)imidazo[1,2-a]pyrazin-3-yl]phenol] showed an Emax of 50 to 100%. Work on `CN(C)CCCNC(=O)c1ccc(-c2cn3c(-c4ccc5c(ccn5C)c4)cnc3cn2)cc1` [compound 398, N-[3-(dimethylamino)propyl]-4-[3-(1-methylindol-5-yl)imidazo[1,2-a]pyrazin-6-yl]benzamide] yielded an Emax of 20 to 50%. In the case of `Cn1ccc2cc(-c3cnc4cnc(-c5cccc(C(=O)NCCO)c5)cn34)ccc21` [compound 399, N-(2-hydroxyethyl)-3-[3-(1-methylindol-5-yl)imidazo[1,2-a]pyrazin-6-yl]benzamide], the Emax is reported as 20 to 50%. Work on `COc1cc(-c2cn3c(-c4ccc5c(ccn5C)c4)cnc3cn2)ccc1O` [compound 400, 2-methoxy-4-[3-(1-methylindol-5-yl)imidazo[1,2-a]pyrazin-6-yl]phenol] yielded an Emax of 20 to 50%. `Cn1ccc2cc(-c3cnc4cnc(-c5cccc(C(N)=O)c5)cn34)ccc21` [compound 401, 3-[3-(1-methylindol-5-yl)imidazo[1,2-a]pyrazin-6-yl]benzamide] was tested, and the Emax was 20 to 50%. For `CN1CCN(C(=O)c2ccc(-c3cnc4cnc(/C=C/c5ccccc5)cn34)cc2)CC1` [compound 402, (4-methylpiperazin-1-yl)-[4-[6-[(E)-styryl]imidazo[1,2-a]pyrazin-3-yl]phenyl]methanone], the Emax was 10 to 20%. `CS(=O)(=O)Nc1cccc(-c2cn3c(-c4ccc(Oc5ccccc5)cc4)cnc3cn2)c1` [compound 403, N-[3-[3-(4-phenoxyphenyl)imidazo[1,2-a]pyrazin-6-yl]phenyl]methanesulfonamide] gave an Emax of 20 to 50%. For `Cc1ccccc1-c1cnc2cnc(-c3cccc(F)c3)cn12` [compound 404, 6-(3-fluorophenyl)-3-(o-tolyl)imidazo[1,2-a]pyrazine], the Emax was 10 to 20%. `Cc1ccccc1-c1cnc2cnc(-c3cccs3)cn12` [compound 405, 3-(o-tolyl)-6-(2-thienyl)imidazo[1,2-a]pyrazine] gave an Emax of 10 to 20%. For `COc1cc(-c2cn3c(-c4ccccc4Cl)cnc3cn2)ccc1O` [compound 406, 4-[3-(2-chlorophenyl)imidazo[1,2-a]pyrazin-6-yl]-2-methoxy-phenol], the Emax was 20 to 50%. `CC(C)(C)c1ccc(-c2cnc3cnc(-c4ccc(N)nc4)cn23)cc1` [compound 408, 5-[3-(4-tert-butylphenyl)imidazo[1,2-a]pyrazin-6-yl]pyridin-2-amine] showed an Emax of 10 to 20%. `CC(=O)c1cccc(-c2cnc3cnc(-c4cccnc4)cn23)c1` [compound 409, 1-[3-[6-(3-pyridyl)imidazo[1,2-a]pyrazin-3-yl]phenyl]ethanone] was tested, and the Emax was 20 to 50%. Compound `CC(=O)c1cccc(-c2cnc3cnc(-c4cccc(F)c4)cn23)c1` [compound 410, 1-[3-[6-(3-fluorophenyl)imidazo[1,2-a]pyrazin-3-yl]phenyl]ethanone] has an Emax of 20 to 50%. `CC(=O)c1cccc(-c2cnc3cnc(-c4ccc(C(=O)NCCN(C)C)cc4)cn23)c1` [compound 411, 4-[3-(3-acetylphenyl)imidazo[1,2-a]pyrazin-6-yl]-N-(2-dimethylaminoethyl)benzamide] gave an Emax of 20 to 50%. `CN(C)c1ccccc1-c1cn2c(-c3cccs3)cnc2cn1` [compound 413, N,N-dimethyl-2-[3-(2-thienyl)imidazo[1,2-a]pyrazin-6-yl]aniline] was tested, and the Emax was 20 to 50%. Compound `c1csc(-c2cnc3cnc(-c4ccncc4)cn23)c1` [compound 414, 6-(4-pyridyl)-3-(2-thienyl)imidazo[1,2-a]pyrazine] has an Emax of 20 to 50%. Work on `c1csc(-c2cnc3cnc(-c4ccsc4)cn23)c1` [compound 415, 3-(2-thienyl)-6-(3-thienyl)imidazo[1,2-a]pyrazine] yielded an Emax of 50 to 100%. `c1csc(-c2cnc3cnc(-c4cc5ccccc5s4)cn23)c1` [compound 416, 6-(benzothiophen-2-yl)-3-(2-thienyl)imidazo[1,2-a]pyrazine] gave an Emax of 50 to 100%. Work on `Oc1ccc(-c2cn3c(-c4cccs4)cnc3cn2)cc1` [compound 417, 4-[3-(2-thienyl)imidazo[1,2-a]pyrazin-6-yl]phenol] yielded an Emax of 50 to 100%. In the case of `FC(F)(F)Oc1ccc(-c2cn3c(-c4cccs4)cnc3cn2)cc1` [compound 418, 3-(2-thienyl)-6-[4-(trifluoromethoxy)phenyl]imidazo[1,2-a]pyrazine], the Emax is reported as 20 to 50%. `C(=C\c1cn2c(-c3cccs3)cnc2cn1)/c1ccccc1` [compound 419, 6-[(E)-styryl]-3-(2-thienyl)imidazo[1,2-a]pyrazine] was tested, and the Emax was 20 to 50%. In the case of `O=C(NCCO)c1cccc(-c2cn3c(-c4cccs4)cnc3cn2)c1` [compound 420, N-(2-hydroxyethyl)-3-[3-(2-thienyl)imidazo[1,2-a]pyrazin-6-yl]benzamide], the Emax is reported as 20 to 50%. Compound `Clc1cccc(-c2cn3c(-c4cccs4)cnc3cn2)c1` [compound 421, 6-(3-chlorophenyl)-3-(2-thienyl)imidazo[1,2-a]pyrazine] has an Emax of 20 to 50%. In the case of `OCc1ccc(-c2cn3c(-c4cccs4)cnc3cn2)cc1` [compound 422, [4-[3-(2-thienyl)imidazo[1,2-a]pyrazin-6-yl]phenyl]methanol], the Emax is reported as 20 to 50%. In the case of `O=C(NCCO)c1ccc(-c2cn3c(-c4cccs4)cnc3cn2)cc1` [compound 423, N-(2-hydroxyethyl)-4-[3-(2-thienyl)imidazo[1,2-a]pyrazin-6-yl]benzamide], the Emax is reported as 10 to 20%. Compound `c1csc(-c2cn3c(-c4cccs4)cnc3cn2)c1` [compound 424, 3,6-bis(2-thienyl)imidazo[1,2-a]pyrazine] has an Emax of 50 to 100%. In the case of `CS(=O)(=O)Nc1cccc(-c2cn3c(-c4cccs4)cnc3cn2)c1` [compound 425, N-[3-[3-(2-thienyl)imidazo[1,2-a]pyrazin-6-yl]phenyl]methanesulfonamide], the Emax is reported as 20 to 50%. Compound `COc1cc(OC)cc(-c2cn3c(-c4cccs4)cnc3cn2)c1` [compound 426, 6-(3,5-dimethoxyphenyl)-3-(2-thienyl)imidazo[1,2-a]pyrazine] has an Emax of 20 to 50%. Work on `Nc1ccc(-c2cn3c(-c4cccs4)cnc3cn2)cn1` [compound 427, 5-[3-(2-thienyl)imidazo[1,2-a]pyrazin-6-yl]pyridin-2-amine] yielded an Emax of 20 to 50%. `CC(C)Oc1cccc(-c2cn3c(-c4cccs4)cnc3cn2)c1` [compound 428, 6-(3-isopropoxyphenyl)-3-(2-thienyl)imidazo[1,2-a]pyrazine] gave an Emax of 20 to 50%. In the case of `CN1CCN(c2ccc(-c3cn4c(-c5ccc(C(=O)N(C)C)cc5)cnc4cn3)cn2)CC1` [compound 429, N,N-dimethyl-4-[6-[6-(4-methylpiperazin-1-yl)-3-pyridyl]imidazo[1,2-a]pyrazin-3-yl]benzamide], the Emax is reported as 20 to 50%. `CN(C)C(=O)c1ccc(-c2cnc3cnc(-c4ccccc4Oc4ccccc4)cn23)cc1` [compound 430, N,N-dimethyl-4-[6-(2-phenoxyphenyl)imidazo[1,2-a]pyrazin-3-yl]benzamide] gave an Emax of 20 to 50%. In the case of `CN(C)C(=O)c1ccc(-c2cnc3cnc(-c4ccsc4)cn23)cc1` [compound 431, N,N-dimethyl-4-[6-(3-thienyl)imidazo[1,2-a]pyrazin-3-yl]benzamide], the Emax is reported as 20 to 50%. `CC(=O)Nc1cccc(-c2cn3c(-c4ccc(C(=O)N(C)C)cc4)cnc3cn2)c1` [compound 432, 4-[6-(3-acetamidophenyl)imidazo[1,2-a]pyrazin-3-yl]-N,N-dimethyl-benzamide] showed an Emax of 20 to 50%. Compound `CN(C)C(=O)c1ccc(-c2cnc3cnc(-c4ccc5c(ccn5C)c4)cn23)cc1` [compound 433, N,N-dimethyl-4-[6-(1-methylindol-5-yl)imidazo[1,2-a]pyrazin-3-yl]benzamide] has an Emax of 20 to 50%. For `CC(=O)c1ccc(-c2cn3c(-c4ccc(C(=O)NC5CC5)cc4)cnc3cn2)s1` [compound 434, 4-[6-(5-acetyl-2-thienyl)imidazo[1,2-a]pyrazin-3-yl]-N-cyclopropyl-benzamide], the Emax was 20 to 50%. For `CC(C)N1CCN(c2ccc(-c3cn4c(-c5ccc(C(=O)NC6CC6)cc5)cnc4cn3)cc2)CC1` [compound 435, N-cyclopropyl-4-[6-[4-(4-isopropylpiperazin-1-yl)phenyl]imidazo[1,2-a]pyrazin-3-yl]benzamide], the Emax was 20 to 50%. Work on `COc1cc(OC)cc(-c2cnc3cnc(-c4ccccc4N(C)C)cn23)c1` [compound 436, 2-[3-(3,5-dimethoxyphenyl)imidazo[1,2-a]pyrazin-6-yl]-N,N-dimethylaniline] yielded an Emax of 20 to 50%. Compound `COc1cc(OC)cc(-c2cnc3cnc(-c4cccc(OC(C)C)c4)cn23)c1` [compound 437, 3-(3,5-dimethoxyphenyl)-6-(3-isopropoxyphenyl)imidazo[1,2-a]pyrazine] has an Emax of 20 to 50%. Work on `Cn1cc(-c2cnc3cnc(-c4ccncc4)cn23)cn1` [compound 438, 3-(1-methylpyrazol-4-yl)-6-(4-pyridyl)imidazo[1,2-a]pyrazine] yielded an Emax of 20 to 50%.
